Measurements from patent US20240299584A1, “NON-CODING RNA PROTECTING AGAINST HEART FAILURE” (MEDIZINISCHE HOCHSCHULE HANNOVER, priority 2019, published 2024).
Entries after “also recorded” stand apart in the source; their conditions may differ.

Legend:
[1] = test system: HL-1 cells; test: RT-qPCR expression in HL-1 cells; format: cell-based, mouse; conditions: for expression of circ-Insr: 24 h, epirubicin 1 and 5 μM, daunorubicin 1.25 and 2.5 μM, paclitaxel 0.1 and 0.5 μM
Description: HL-1 cells were cultured in Claycomb medium together with 10% FBS, norepinephrine, L-Glutamine and pencillin/streptomycin as manufacturer's protocol. 3T3 and RAW264.7 cells were cultured in DMEM with 10% FBS and pencillin/streptomycin. Neonatal rat cardiomyocytes (NRCM) were isolated from one to three-day old rat babies by using the Neonatal Heart Dissociation Kit (Miltenyi). Human iPSC derived cardiomyocytes (hiPSC-cm) were differentiated at the lab of IMTTS. […] NRCM and hipsc-CM were transduced by AAV6 (MOI: 1*10^4) for 72 hours.
(§1) RNA isolation from cell culture and heart tissue was done using Trifast (Peqlab) as per the manufacturer's instructions. Isolated RNA (500 ng-1000 ng) was reversed transcribed with random primer using iScript Select cDNA synthesis kit (Biorad). Real-Time quantative PCR was done with iQ SYBR Green mix (Biorad) on C1000 Touch Thermocycler (Biorad) using specific primer pairs. For amplification of circular RNAs, divergent primers were used while normal linear transcripts were amplified by convergent primers as usual. For RNase R resistant assay RNA was incubated with RNase R (Biozym Scientific) at 37° C. for 10 minutes and heat […] at 95° C. for three minutes. RNA was then reverse transcribed and amplified by specific PCR primers as mentioned before.

[2] = Body weight changes in doxorubicin cardiotoxicity mouse model; format: in vivo; conditions: doxorubicin and vehicle treated mice
Description: (§5) The AAV-circINSR construct was packaged into AAV9 and injected adult male mice (12 weeks) with a single dose of 2×10^12 viral genomes/mouse or with the same amount of AAV9-empty control vectors. After two weeks to allow full AAV mediated gene expression, the mice received a cumulative dose of 25 mg/kg/bw doxorubicin over a course of 5 weeks and were sacrificed 1 week later after echocardiography was performed (FIG. 4A).
(§6) C57BL/6 N mice of 8 weeks of age were injected (intraperitoneally) with doxorubicin at a dose of 5 mg/kg once a week for consecutive 5 weeks. One week later after the last doxorubicin treatment, echocardiography data were recorded by an independent blinded researcher using the Vevo 2100 system (Fujifilm Visulasonics, Inc). […] Echocardiography data were analyzed using standard imaging protocols (M-mode and B-mode) for global cardiac volumes and functioning using the Vevostrain software (Fujifilm Visulasonics, Inc). […] AAV9 (adeno-associated virus serotype 9) was injected (intravenously) 2 weeks before first doxorubicin injection. Animal experiments were randomized and blinded with an internal number.

[3] = test system: mouse heart; test: RT-qPCR expression analysis in mouse heart tissue; format: in vivo
Description: as §1

[4] = test system: circulating circINSR; test: circINSR level in mouse plasma; format: in vivo; conditions: doxorubicin vs PBS control
Source text: NcRNAs can be released into the extra-cellular space through passive mechanisms (e.g. necrosis of cells) or actively within secreted microvesicles^20. Since they can be readily isolated and measured from body fluids such as blood, these circulating ncRNAs have gained much attention as potential biomarkers for various diseases^21, 22. Indeed, ot was possible to detect circINSR in human and murine plasma (FIG. 9A,B). Strikingly, levels of circulating circINSR were diminished in mice treated with doxorubicin, which warrants further investigation of circINSR as a marker for anthracycline-related heart failure. Then the presence of circINSR in exosomes isolated from HL-1 cell culture supernatants was tested. […] To further corroborate the findings, a circINSR knock-out cell line was generated. Using a dual guideRNA CRISPR/Cas9 approach the majority of the circINSR forming exon was excised (FIG. 18A,B). Expectedly, this not only abrogated circINSR expression but also INSR protein expression (FIG. 18C,D). Then this cell line was used to overexpress circINSR via transfection with pcDNA3.1.
RNA isolation from cell culture and heart tissue was done using Trifast (Peqlab) as per the manufacturer's instructions. Isolated RNA (500 ng-1000 ng) was reversed transcribed with random primer using iScript Select cDNA synthesis kit (Biorad). […]

[5] = test system: apoptotic cardiomyocytes; test: TUNEL and cardiac troponin T co-staining of heart sections; format: in vivo, mouse; conditions: transversal heart sections, doxorubicin model; circINSR given as AAV9
Description: (§2) In addition to apoptosis, doxorubicin is known to cause cardiomyocyte atrophy^12 (G). Thus, histopathology analyses were performed on transversal heart section.
Cells were fixed with 4% paraformaldehyde for twenty minutes at room temperature and then permeabilized with ice-cold 0.1% Triton-X-100 in PBS for two minutes at room temperature. Next cells were incubated with enzyme labelling solution provided with In Situ cell death detection kit (Roche) for 1 hour at 37° C. For negative staining, enzyme was not added to the labelling solution. Cells were then washed and incubated with Dapi for 15 minutes. To specifically label neonatal rat cardiomyocytes and hipsc-CM, cells were co-stained with cardiac Troponin T (Thermofisher) after Tunel staining. Images were taken with Nikon Eclipse Ti microscope and images were analyzed with NIS Elements. For analysis in each case, ten different images were analyzed from different regions and average value was taken. Similarly, cryosections of heart were also processed for staining. Numerous images covering complete heart section was taken and Tunel positive nuclei were counted in each field. Average value for each heart was calculated.

[6] = test system: cardiomyocytes; test: Cardiomyocyte size on wheat germ agglutinin stained heart sections; format: in vivo, mouse; conditions: WGA stained heart sections, doxorubicin model; circINSR given as AAV9
Description: as §2
Cryosections of heart were stained with Alexa Fluor 488 labelled wheat germ agglutinin (Invitrogen) and dapi. Images were taken with Nikon Eclipse Ti microscope and images were analyzed with NIS Elements. For each heart 5 to 10 images were randomly taken from different regions of the section and minimum two hundred cells were measured and average value was taken for each heart.

[7] = test system: HL-1 cells; test: Annexin V & 7-AAD staining (apoptosis); format: cell-based, mouse; conditions: HL-1 cells treated with doxorubicin 0.25 μM 48 h
Description: (§3) HL-1 cells were cultured in Claycomb medium together with 10% FBS, norepinephrine, L-Glutamine and pencillin/streptomycin as manufacturer's protocol. 3T3 and RAW264.7 cells were cultured in DMEM with 10% FBS and pencillin/streptomycin. Neonatal rat cardiomyocytes (NRCM) were isolated from one to three-day old rat babies by using the Neonatal Heart Dissociation Kit (Miltenyi). Human iPSC derived cardiomyocytes (hiPSC-cm) were differentiated at the lab of IMTTS. All the cells were treated with 0.25 μM Doxorubicin (Sigma-Aldrich) for 48 hours. circ-Insr siRNA (Eurofins), in vitro circular RNA and overexpression plasmid were transfected with Lipofectamine 2000 (Life Technologies) in OptiMEM medium. NRCM and hipsc-CM were transduced by AAV6 (MOI: 1*10^4) for 72 hours.
FlowCellect Annexin Red kit (Millipore) was used to stain apoptotic cells as per the manufacturer instruction. Briefly, cells were seeded in 12 well plate and next day treated with 0.25 μM Doxorubicin in normal medium with 10% FBS for forty-eight hours. Then cells were trypsinized and harvested and stained with Annexin-V for 15 minutes at 37° C. in 1× assay buffer. Annexin-V stained cells were centrifuged and washed with 1× assay buffer. Next cells were incubated with 7-AAD for 5 minutes and acquired on Guava (Millipore) flow cytometer. Data was analyzed with FLOWJO software.

[8] = test system: HL-1 cells; test: WST-1 assay (cell viability); format: cell-based, mouse; conditions: HL-1 cells treated with doxorubicin 0.25 μM 48 h
Description: as §3
WST-1 assay was performed using Cell Proliferation Reagent WST-1 (Roche) as per the manufacturer instruction. Briefly, HL-1 cells were seeded in 96 well plate and next day treated with 0.25 μM Doxorubicin in normal medium with 10% FBS for forty-eight hours. Next, 10 μL WST1 reagent was added and incubated for 1 hour followed by the absorbance measurement (450 nm) at HT Synergy (Biotek) plate reader.

[9] = test system: HL-1 cells; test: mtDNA copy number measurement; format: cell-based, mouse; conditions: doxorubicin 0.25 μM 48 h, circ-Insr by overexpression plasmid
Description: (§4) Based on the results of the foregoing examples, it was reasoned that circ-Insr could interact with SSBP1. To further confirm the interaction between circ-Insr and SSBP1, siRNA mediated circ-Insr knock-down was applied in HL-1 cells. Next, RNA pulldown was performed with circ-Insr and scramble biotinylated probes. RT-qPCR confirmed that decrease of circ-Insr appeared both in input and circ-Insr pulldown group (FIG. 23A). […] Therefore, we assumed that circ-Insr is a cofactor of SSBP1 resulting in the regulation of mitochondrial function in cardiomyocytes by stabilizing mtDNA. […] Furthermore, mito-damage assay was applied to measure the changes in mitochondrial membrane potential (MMP). […] Next, we co-transfected HL-1 cells with pcDNA-circ-Insr and SSBP1 siRNA and examined cell viability using the WST assay to explore whether SSBP1 participated in the circ-Insr overexpression-mediated therapy of doxorubicin-cardiotoxicity. RT-qPCR indicated SSBP1 siRNA could downregulate endogenous SSBP1 expression (FIG. 23G).
The ratio of mtDNA to genomic DNA was calculated by dividing copies of CYTB with copies of ACTB in each experiment (Li J, Chan M C, Yu Y, Bei Y H, Chen P, Zhou Q L, et al. miR-29b contributes to multiple types of muscle atrophy. Nature communications. 2017; 8). […] Fluorescence was measured during the last step of each cycle using the SYBR channel. […]

[10] = test system: HL-1 cells; test: Mito-damage assay, mitochondrial membrane potential; format: cell-based, mouse; conditions: doxorubicin 0.25 μM 48 h
Description: as §4

[11] = human patients; cited from earlier work
[12] = test system: C57BL/6 N mice; test: Echocardiography in mouse model of chronic doxorubicin-induced cardiotoxicity
Description: as §5, §6

[13] = doxorubicin treated mice, in words

COc1cccc2c1C(=O)c1c(O)c3c(c(O)c1C2=O)C[C@@](O)(C(C)=O)C[C@@H]3O[C@H]1C[C@H](N)[C@H](O)[C@H](C)O1 [daunorubicin]
expression of circ-Insr [1]: significant downregulation

COc1cccc2c1C(=O)c1c(O)c3c(c(O)c1C2=O)C[C@@](O)(C(=O)CO)C[C@@H]3O[C@H]1C[C@H](N)[C@H](O)[C@H](C)O1 [doxorubicin]
body weight [2]: significantly halted the weight gain
Brca1 mRNA expression in hearts ([3]; doxorubicin treated mice vs PBS control): significantly lower levels
circINSR expression in heart ([3]; mouse heart, doxorubicin 5 mg/kg once a week for 5 weeks): significant decrease; also recorded: downregulation
levels of circulating circINSR [4]: diminished
apoptotic cardiomyocytes (TUNEL / cTNT) [5]: strong induction of apoptosis
cardiomyocyte size [6]: atrophic response
apoptotic cells (Annexin V) [7]: increased the number of apoptotic cells
cell viability (WST-1) [8]: significantly diminished; also recorded: impair
circINSR expression ([1]; doxorubicin 0.25 μmol/L 48 h): downregulation
mtDNA copy number / mtDNA content [9]: significantly reduced
mitochondrial membrane potential (MMP) [10]: impair
underlying cause in heart transplantation patients, share of all cases [11]: 2-3%
Fractional Shortening ([12]; Mean, mice with doxorubicin, cumulative 25 mg/kg over 5 weeks): significant reduction
left ventricular anterior and posterior wall thickness [12, 13]: decreased
left ventricular volume [12, 13]: increased

COc1cccc2c1C(=O)c1c(O)c3c(c(O)c1C2=O)C[C@@](O)(C(=O)CO)C[C@@H]3O[C@H]1C[C@H](N)[C@@H](O)[C@H](C)O1 [epirubicin]
expression of circ-Insr [1]: significant downregulation

CC(=O)O[C@H]1C(=O)[C@@]2(C)[C@H]([C@H](OC(=O)c3ccccc3)[C@]3(O)C[C@H](OC(=O)[C@H](O)[C@@H](NC(=O)c4ccccc4)c4ccccc4)C(C)=C1C3(C)C)[C@]1(OC(C)=O)CO[C@@H]1C[C@@H]2O [paclitaxel]
expression of circ-Insr [1]: no change
